According to ChEMBL document CHEMBL1128982, “3-Hydroxy-quinolin-2-ones: Inhibitors of [3H]-glycine binding to the site associated with the NMDA receptor” (Bioorg Med Chem Lett, 1996):

Tests used:
[1] = target: T1, Glutamate NMDA receptor (Rattus norvegicus) (UniProt P35439+Q00959+Q00960+Q00961+Q62645+Q8VHN2+Q9R1M7); experiment: Displacement of [3H]glycine from NMDA receptor of rat cortical membranes; type: cell membranes; set-up: concentration or dose not given beside the values; details: Membrane, concentration not given here
Glutamate NMDA receptor = experiment: Displacement of [3H]-glycine from NMDA receptor of rat cortical membranes; type: cell membranes, Membrane
[2] = target: T1, Glutamate NMDA receptor (Rattus norvegicus); experiment: Compound was evaluated for its ability to displace [3H]-glycine from rat cortical membranes at concentration 10 uM for NMDA receptor
[3] = target: Glutamate receptor ionotropic, AMPA (Rattus norvegicus) (UniProt P19491+P19492+P19493+P19490); experiment: Displacement of [3H]AMPA from AMPA receptor of rat cortical membranes; type: cell membranes; set-up: concentration or dose not given beside the values; details: Membrane, concentration not given here

Row | inhibition [1] [%] | IC50 (Glutamate NMDA receptor) [µM] | inhibition [3] [%] | Structure (SMILES) | also measured
1 | 0 |  |  | Oc1cc2c(Cl)c(Cl)ccc2nc1O | 
2 |  | 0.062 |  | CCOC(=O)c1c(O)c(O)nc2cc(Cl)cc(Cl)c12 | 
3 | 29 |  |  | Oc1cc2c(Cl)cc(Cl)cc2nc1O | 
4 | 20 |  |  | Oc1nc2ccc(Cl)c(Cl)c2c(Cl)c1O | 
5 | 38 |  |  | CCOC(=O)c1c(O)c(O)nc2ccc(Cl)c(Cl)c12 | 
6 | 23 |  |  | Oc1nc2ccc(Cl)c(Cl)c2c(Br)c1O | 
7 |  | 0.029 | 56 | CCOC(=O)C(=O)c1c(O)c(O)nc2cc(Cl)cc(Cl)c12 | 
8 |  | 3.8 | 15 | CNC(=O)C(=O)c1c(O)c(O)nc2cc(Cl)cc(Cl)c12 | 
9 | 43 |  |  | CCOC(=O)c1c(O)c(O)nc2cc(Cl)c(Cl)cc12 | 
10 |  | 2.8 | 41 | Oc1nc2cc(Cl)cc(Cl)c2c(Br)c1O | 
11 |  | 0.15 | 28 | COC(=O)C(=O)c1c(O)c(O)nc2cc(Cl)cc(Cl)c12 | 
12 |  | 0.52 | 63 | O=C(O)C(=O)c1c(O)c(O)nc2cc(Cl)cc(Cl)c12 | 
13 |  | 4.5 | 48 | Oc1nc2cc(Cl)cc(Cl)c2c(Cl)c1O | 
14 |  | 1.4 |  | Oc1nc2ccccc2c(Cl)c1O | 

Further lines, the compound ahead of its results:

Row | Structure (SMILES) | inhibition [1] [%] | IC50 (Glutamate NMDA receptor) [µM] | inhibition [3] [%] | also measured
15 | COc1ccc(NC(=O)c2c(O)c(O)nc3ccccc23)cc1OC | 0 |  |  | 
16 | O=c1[nH]c2ccccc2cc1O | 29 |  |  | 
17 | Oc1nc2ccccc2c(Br)c1O | 59 |  |  | 
18 | CCOC(=O)C(=O)c1c(O)c(O)nc2ccccc12 |  | 12 |  | 
19 | CCOC(=O)c1c(OC)c(O)nc2cc(Cl)cc(Cl)c12 |  |  |  | inhibition [2]: 5%
20 | CCOC(=O)c1c(OC)c(O)nc2ccccc12 |  |  |  | inhibition [2]: 0%
21 | O=C(O)C(=O)c1c(O)c(O)nc2ccccc12 |  | 1.8 | 31.9 | 
22 | O=C(Nc1ccccc1)C(=O)c1c(O)c(O)nc2cc(Cl)cc(Cl)c12 |  | 0.76 | 40 | 
23 | O=C(O)CCc1c(O)c(O)nc2ccccc12 | 25 |  |  | 
24 | CCOC(=O)c1c(O)c(O)nc2ccccc12 | 50 |  |  | 
25 | COC(=O)C(=O)c1c(O)c(O)nc2ccccc12 |  | 3 | 2.6 | 
26 | CCOC(=O)/C=C/c1c(O)c(O)nc2ccccc12 | 11 |  |  | 
27 | O=C(O)/C=C/c1c(O)c(O)nc2ccccc12 | 43 |  |  | 
28 | CCOC(=O)c1c(OC)c(O)nc2cc(Cl)c(Cl)cc12 |  |  |  | inhibition [2]: 0%
29 | O=C(NCc1ccccc1)c1c(O)c(O)nc2ccccc12 | 40 |  |  | 
30 | O=C(O)c1c(O)c(O)nc2ccccc12 | 60 |  |  | 
